Laboratory results reported in publication PMC11413854, “Reversible Control of Native GluN2B-Containing NMDA Receptors with Visible Light” (ACS Chemical Neuroscience, 2024).
Where “and” joins values, the source holds several entries; their conditions need not be identical. Equal values may be shown once. Read-outs that look alike come from different tables or passages of the source.

What was measured:
Assay type in all cases: cell-based
GluN1/GluN2A = molecular target: T1, GluN1/GluN2A (Rattus norvegicus, UniProt P35439+Q00959); test: TEVC on Xenopus oocytes, GluN1/GluN2A diheteromers; conditions: 1 µM trans-OptoNAM-3 (dark); listed as trans-OptoNAM-3
T1 construct: expressed in transfected cells; host or cells: Xenopus laevis oocytes (nuclear cDNA injection)
T1 sequence (Q00959 23-1464, other chains not shown): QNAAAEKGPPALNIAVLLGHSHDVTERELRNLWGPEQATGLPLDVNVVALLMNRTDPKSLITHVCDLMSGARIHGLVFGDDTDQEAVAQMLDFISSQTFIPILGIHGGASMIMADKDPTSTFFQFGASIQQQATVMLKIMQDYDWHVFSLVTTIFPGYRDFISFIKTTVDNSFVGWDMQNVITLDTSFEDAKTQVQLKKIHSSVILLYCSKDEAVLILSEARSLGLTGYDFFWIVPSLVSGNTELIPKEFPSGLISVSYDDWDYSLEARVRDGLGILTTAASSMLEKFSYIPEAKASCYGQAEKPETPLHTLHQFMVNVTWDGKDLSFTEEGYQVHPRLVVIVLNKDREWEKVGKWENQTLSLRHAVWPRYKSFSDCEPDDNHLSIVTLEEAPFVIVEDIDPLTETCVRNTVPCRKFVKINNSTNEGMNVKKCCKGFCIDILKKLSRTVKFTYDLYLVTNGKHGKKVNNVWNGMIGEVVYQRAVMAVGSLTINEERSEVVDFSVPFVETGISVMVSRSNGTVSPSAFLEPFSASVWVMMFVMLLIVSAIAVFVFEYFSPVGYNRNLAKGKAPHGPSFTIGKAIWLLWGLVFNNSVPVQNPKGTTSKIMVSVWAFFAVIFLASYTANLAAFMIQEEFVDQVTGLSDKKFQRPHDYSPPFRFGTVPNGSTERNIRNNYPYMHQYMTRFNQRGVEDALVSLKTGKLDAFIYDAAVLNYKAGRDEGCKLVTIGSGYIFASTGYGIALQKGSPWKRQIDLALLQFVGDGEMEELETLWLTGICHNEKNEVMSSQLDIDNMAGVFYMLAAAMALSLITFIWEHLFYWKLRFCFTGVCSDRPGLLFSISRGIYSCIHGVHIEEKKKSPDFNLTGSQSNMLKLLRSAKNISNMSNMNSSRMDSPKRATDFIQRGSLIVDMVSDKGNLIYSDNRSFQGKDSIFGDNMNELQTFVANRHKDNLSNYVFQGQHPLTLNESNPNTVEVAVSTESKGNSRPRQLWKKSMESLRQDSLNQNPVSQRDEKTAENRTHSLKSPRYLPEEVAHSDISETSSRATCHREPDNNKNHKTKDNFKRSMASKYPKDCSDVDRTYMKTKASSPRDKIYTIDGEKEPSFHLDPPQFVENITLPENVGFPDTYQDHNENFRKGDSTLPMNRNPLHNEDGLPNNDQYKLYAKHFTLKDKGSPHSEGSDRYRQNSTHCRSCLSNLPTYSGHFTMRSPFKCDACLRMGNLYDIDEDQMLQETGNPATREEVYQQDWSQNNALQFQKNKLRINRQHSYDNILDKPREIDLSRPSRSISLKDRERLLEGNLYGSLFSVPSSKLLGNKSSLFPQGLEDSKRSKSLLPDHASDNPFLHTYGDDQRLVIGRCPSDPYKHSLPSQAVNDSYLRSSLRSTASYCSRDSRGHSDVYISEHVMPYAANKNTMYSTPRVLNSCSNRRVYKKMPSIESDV
Excerpt: (§1) NMDARs exist as multiple subtypes in the brain that are formed by the combination of two GluN1 and either two identical (diheteromers) or different (triheteromers) GluN2 (GluN2A-D) subunits.[1] We assessed the selectivity of trans-OptoNAM-3 (dark PSS) for the other NMDAR subtypes.
(§2) We used cDNA coding for rat GluN1–1a (named GluN1 herein) (GenBank: U08261.1), rat GluN2A (GenBank: D13211.1), mouse GluN2B (GenBank: D10651.2), rat GluA1 flop (GenBank: M36418.2), and rat Myc-GluA2(Q)-flip (GenBank: AF164344.1) cloned into pcDNA3-based expression plasmids. GluK2 (GenBank: Z11548.1) corresponds to the fully RNA-edited version.[80] The GluN2B-ΔNTD construct is from ref[45] and GluN2B–N615K is from ref[81]. Single mutants GluN2B-Q110G and GluN1-L135H were from ref[19]. The GluA2 cDNA contains a Myc tag ([…]) fused between the signal peptide and the N-terminus sequences, and the GluA2 subunit is […] for its Q/R/N site (GluA2(Q)) to allow permeation of homomeric GluA2 receptors.[2] cDNAs coding for rat GluN2C (GenBank: M91563.1) and GluN2D subunits (GenBank: L31611.1) were in prK5 plasmids.
(§3) Expression of recombinant NMDA receptors was obtained by oocyte nuclear coinjection of 37 nL of a mixture of cDNAs (at 30 ng/μL) coding for GluN1–1a and various GluN2 subunits (ratio 1:1). The protocol in ref[43] was followed for the expression of GluN1/GluN2A/GluN2B triheteromers. […]

GluN1/GluN2D = molecular target: T2, GluN1/GluN2D (Rattus norvegicus, UniProt P35439+Q62645); test: TEVC on Xenopus oocytes, GluN1/GluN2D diheteromers; conditions: 1 µM trans-OptoNAM-3 (dark); listed as trans-OptoNAM-3
T2 construct: expressed in transfected cells; host or cells: Xenopus laevis oocytes (nuclear cDNA injection)
T2 sequence (Q62645 28-1323, other chains not shown): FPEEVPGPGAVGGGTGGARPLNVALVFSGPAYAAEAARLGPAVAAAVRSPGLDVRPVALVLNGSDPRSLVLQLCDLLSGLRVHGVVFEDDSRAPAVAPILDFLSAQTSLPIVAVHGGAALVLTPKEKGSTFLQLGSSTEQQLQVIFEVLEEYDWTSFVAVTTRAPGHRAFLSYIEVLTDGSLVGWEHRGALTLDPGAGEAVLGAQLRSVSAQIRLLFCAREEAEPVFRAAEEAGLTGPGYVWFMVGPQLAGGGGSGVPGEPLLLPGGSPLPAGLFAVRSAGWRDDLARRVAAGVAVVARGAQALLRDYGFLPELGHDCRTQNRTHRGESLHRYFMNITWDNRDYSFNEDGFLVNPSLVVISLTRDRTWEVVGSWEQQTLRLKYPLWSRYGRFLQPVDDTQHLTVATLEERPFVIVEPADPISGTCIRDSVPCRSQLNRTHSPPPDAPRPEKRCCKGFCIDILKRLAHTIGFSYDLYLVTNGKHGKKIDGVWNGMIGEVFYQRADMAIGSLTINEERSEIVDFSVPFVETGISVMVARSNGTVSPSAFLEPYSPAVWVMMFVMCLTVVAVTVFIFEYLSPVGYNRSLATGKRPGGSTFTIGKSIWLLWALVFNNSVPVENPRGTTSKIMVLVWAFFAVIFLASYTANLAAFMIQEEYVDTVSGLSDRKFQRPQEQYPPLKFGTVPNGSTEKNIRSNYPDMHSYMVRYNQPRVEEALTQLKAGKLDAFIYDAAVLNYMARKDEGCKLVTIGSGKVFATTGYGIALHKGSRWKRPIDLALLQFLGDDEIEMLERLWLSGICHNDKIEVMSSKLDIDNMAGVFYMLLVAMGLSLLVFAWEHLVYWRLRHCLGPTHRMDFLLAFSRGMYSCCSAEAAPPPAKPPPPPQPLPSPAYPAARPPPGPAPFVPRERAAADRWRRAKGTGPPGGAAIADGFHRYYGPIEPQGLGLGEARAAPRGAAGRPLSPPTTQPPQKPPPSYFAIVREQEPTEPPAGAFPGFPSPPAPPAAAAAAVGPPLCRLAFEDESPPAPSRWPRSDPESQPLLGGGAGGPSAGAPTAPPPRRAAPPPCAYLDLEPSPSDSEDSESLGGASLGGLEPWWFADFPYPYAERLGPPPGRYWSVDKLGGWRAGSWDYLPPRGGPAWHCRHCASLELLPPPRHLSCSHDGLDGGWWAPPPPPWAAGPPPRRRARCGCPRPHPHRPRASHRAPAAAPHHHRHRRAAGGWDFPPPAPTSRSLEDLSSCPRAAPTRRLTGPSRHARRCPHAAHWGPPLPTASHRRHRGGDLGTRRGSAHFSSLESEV
Excerpt: as §1, §2, §3

GluA1 AMPA receptors = molecular target: T3, GluA1 AMPA receptors (Rattus norvegicus, UniProt P19490); test: TEVC on Xenopus oocytes, GluA1 AMPA receptors; conditions: for Inhibition, individual values: GluA1, single cells
T3 construct: expressed in transfected cells; host or cells: Xenopus laevis oocytes (mRNA injection)
T3 sequence (P19490 19-907): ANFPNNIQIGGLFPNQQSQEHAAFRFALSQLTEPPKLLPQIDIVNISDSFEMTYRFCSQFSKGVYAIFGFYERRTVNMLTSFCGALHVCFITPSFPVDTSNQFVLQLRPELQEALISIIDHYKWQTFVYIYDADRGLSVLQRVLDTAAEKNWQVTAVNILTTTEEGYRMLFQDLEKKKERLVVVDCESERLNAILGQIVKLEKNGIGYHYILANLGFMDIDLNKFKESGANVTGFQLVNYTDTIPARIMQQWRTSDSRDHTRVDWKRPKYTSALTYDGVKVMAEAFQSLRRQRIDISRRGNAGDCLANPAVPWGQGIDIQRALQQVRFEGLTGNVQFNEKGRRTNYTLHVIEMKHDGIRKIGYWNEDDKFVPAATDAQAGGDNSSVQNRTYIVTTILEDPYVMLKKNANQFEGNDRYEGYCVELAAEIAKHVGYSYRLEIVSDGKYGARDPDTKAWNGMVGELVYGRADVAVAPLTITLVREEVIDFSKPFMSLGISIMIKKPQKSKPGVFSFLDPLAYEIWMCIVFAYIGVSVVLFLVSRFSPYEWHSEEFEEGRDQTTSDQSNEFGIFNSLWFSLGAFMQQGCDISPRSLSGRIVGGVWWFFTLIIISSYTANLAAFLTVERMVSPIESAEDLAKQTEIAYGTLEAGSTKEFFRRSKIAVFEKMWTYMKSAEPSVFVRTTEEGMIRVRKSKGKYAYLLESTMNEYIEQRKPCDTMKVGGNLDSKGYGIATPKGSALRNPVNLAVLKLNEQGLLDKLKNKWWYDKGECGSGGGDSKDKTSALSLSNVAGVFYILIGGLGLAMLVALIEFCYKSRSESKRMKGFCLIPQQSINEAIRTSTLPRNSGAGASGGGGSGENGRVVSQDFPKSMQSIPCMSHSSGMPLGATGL
Excerpt: as §2
The expression of recombinant GluA1, GluA2(Q), and GluK2 receptors was obtained by oocyte injection of 50 nL of mRNAs (at 1 μg/μL). mRNAs were generated using the T7 (GluA1 and GluA2) and T3 (GluK2) mMessage mMachine transcription kits (Invitrogen) after cDNA linearization with the SacII restriction enzyme. The injected oocytes were stored in the same conditions as for NMDARs and used 72–96 h postinjection.
TEVC recordings were performed 1–3 days following injection. TEVC recordings were performed using an Oocyte Clamp amplifier OC-725 (Warner Instruments) and computer-controlled via a 1440A Digidata (Molecular Devices). Currents were sampled at 100 Hz and low-pass-filtered at 20 Hz using an 8-pole Bessel filter (900 Series, Frequency Devices Inc.). Data were collected with Clampfit 10.3. During the recording, the cells were continuously perfused with external recording Ringer solution at pH 7.3 (in mM: 100 NaCl, 0.3 BaCl2, 5 HEPES, and 2.5 KCl, pH adjustment to 7.3 by the addition of NaOH). The NMDA currents were induced by simultaneous application of L-glutamate and glycine (agonist solution) at saturating concentration (100 μM each), and DTPA (10 μM) to prevent receptor inhibition by ambient zinc (∼20 nM).[83] A control solution (100 μM glycine and 10 μM DTPA in Ringer pH 7.3) was used for washout of drug and test solutions. AMPA and kainate receptor currents were induced in the same conditions as NMDA currents (100 μM glutamate and glycine + 10 μM DTPA). Oocytes expressing GluK2 kainate receptors were treated with concanavalin A ([…], equivalent to 1.1 mg/mL) during 10 min before recording to decrease receptor desensitization. Unless notified, recordings were performed at a holding potential of −60 mV. All experiments were performed at room temperature. […]

c1ccc(/N=N/c2ccc(CCNc3ccncc3)cc2)cc1 [OptoNAM-3, (E)-N-(4-(Phenyldiazenyl)phenethyl)pyridin-4-amine]
inhibition of GluN1/GluN2A (GluN1/GluN2A): 2.7% ± 0.5%
inhibition of GluN1/GluN2D (GluN1/GluN2D): 2.2% ± 0.2%
inhibition at 10 µM (GluA1 AMPA receptors; 10 µM OptoNAM-3 365 nm PSS, construct GluA1, read-out: Inhibition (%)): -6%
Inhibition, individual values (GluA1 AMPA receptors; 10 µM OptoNAM-3 dark PSS (trans) as headed, second block): -0.02846 and -0.1048 and -0.04691
Inhibition, individual values (GluA1 AMPA receptors; 10 µM OptoNAM-3 dark PSS (trans), first block): -0.02273 and -0.0986 and -0.1111
inhibition at 10 µM (GluA1 AMPA receptors; 10 µM OptoNAM-3 dark PSS (trans), construct GluA1, read-out: Inhibition (%)): -7.7%
inhibition of GluA1 currents (GluA1 AMPA receptors; 10 µM, dark PSS): no effect
inhibition at 10 µM (GluA1 AMPA receptors; 10 µM, dark PSS, read-out: inhibition of GluA1 currents): -7.4 ± 2.7%
